Test results taken from patent US9102697B2, “Trioxacarcins and uses thereof” (President and Fellows of Harvard College, priority 2010, dated 2015).

Legend:
nuclei of H460 cells = experiment: Fluorescence microscopy of labeled H460 cells; type: cell-based; settings: 0.4 μM, 5 h at 37 °C, co-stain TO-PRO-3
Procedure: Fluorescence images of nuclei of H460 cells labeled with DC-45-A2 [4.0 μM] or dideoxy-DC-45-A2 [0.4 μM] for 5 h at 37° C. is provided in FIG. 15. […] The scale bar represents 10 μm.
Experimental Details for Fluorescence Microscopy: H460 cells were grown on 22 mm glass coverslips and allowed to attach for 24 h. Subconfluent H460 cells (50-60% confluency) were treated with drugs of desired concentration and incubated at 37° C. for 5 h. The coverslips were washed three times with warm PBS. The cells were then fixed with 4% paraformaldehyde in PBS at 23° C. for 15 min. At 23° C., the cells were permeablized with 0.1% Triton-X100 in PBS for 15 min and blocked with 5% BSA for 40 min. After two washes with PBS, the cells were incubated with 0.2 µM TO-PRO-3 (Invitrogen) in PBS at 23° C. for 15 min. The coverslips were washed three times with PBS and mounted with Mowiol on microscope slides. Fluorescent images were captured on an Olympus IX71 inverted microscope equipped with a 60× water-immersion objective, a Nikon Intensilight Illuminator, and an Andor iXon EMCCD camera. Imaging data of DC-45-A2 and dideoxy DC-45-A2 were collected with a 387/11 nm excitation filter and a 510/84 nm emission filter purchased from Semrock. TO-PRO-3 dye was imaged using Cy5 channels. The images were complied and colorized using ImageJ software.

[1] = Storage and solution stability

Row | Substance | localization in cells (nuclei of H460 cells) | stability in solution ([1]; in solution at 23 °C) | stability on storage ([1]; stored neat at −25 °C with exclusion of light)
1 | Dideoxy-DC-45-A2 | co-localizes with nuclear DNA |  | 
2 | DC-45-A2 |  | slow decomposition over hours | stable
